From patent publication US20240058328A1, “MASITINIB FOR THE TREATMENT OF ALZHEIMER'S DISEASE” (AB SCIENCE, priority 2020, published 2024)

Test system: patients with Alzheimer's disease
Assay: Phase 3 study AB09004: change from baseline in ADCS-ADL score
Format: in vivo, human
Set-up: key to δLSM (ADCS-ADL): LSM difference in ADCS-ADL change; positive = improvement
Conditions: for δLSM (ADCS-ADL) / ΔLSM (ADCS-ADL): 4.5 mg/kg/day; for δLSM (ADCS-ADL): week 24 from baseline; for ΔLSM (ADCS-ADL): vs placebo, week 24; for improved benefit relative to complementary subpopulation: ΔLSM (ADCS-ADL)
Method: An international, multicenter, randomized, double-blind, placebo-controlled phase 3 study was conducted with the objective to evaluate oral masitinib at a dose of 4.5 mg/kg/day as a treatment for Alzheimer's disease.
Eligible patients, aged at least 50 years, were diagnosed with dementia of Alzheimer's type according to Diagnostic and Statistical Manual of Mental Disorders (DSM)-IV criteria, and probable Alzheimer's disease according to NINCDS-ADRDA (National Institute of Neurological and Communicative Diseases and Stroke/Alzheimer's Disease and Related Disorders Association) criteria. […] Patients with any other cause of dementia not due to Alzheimer's disease were ineligible for the study.
Eligible patients were treated during 24 weeks with masitinib at a dose of 4.5 mg/kg/day (mg per kilo body weight per day) or with placebo. Treatment was administered as add-on therapy in patients who had been treated for a minimum of 6 months with a stable dose of cholinesterase inhibitors (donepezil, rivastigmine or galantamine) and/or memantine, with no changes foreseen in therapy throughout the study.
Primary analysis was based on the co-primary endpoints of: • Change from baseline in Alzheimer's Disease Cooperative Study Activities of Daily Living (ADCS-ADL) score. The ADCS-ADL assesses the competence of patients with Alzheimer's disease in basic and instrumental activities of daily living (ADLs). • Change from baseline in Alzheimer's Disease Assessment Scale-Cognitive Subscale (ADAS-Cog). The ADAS-Cog assesses cognition and memory.
Treatment effect (masitinib versus placebo) was assessed based on absolute change from baseline to week 24 by using an analysis of covariance model (ANCOVA linear model) with the following factors: treatment, baseline value, and stratification criteria of baseline MMSE score, age, ADCS-ADL total score, and ADAS-Cog total score.
For ADCS-ADL, the global score (i.e., the sum of 23 items rated by the caregiver) was used with a range from 0 to 78, wherein 78 implies full functioning with no impairment. Thus, a higher score signifies greater functional ability, while a lower score signifies greater (worse) impairment. Results are expressed as a least-squares means difference (δLSM) of absolute change in ADCS-ADL score from baseline; that is to say, the change over time in the ADCS-ADL score, or in other words the difference between the ADCS-ADL score at baseline (before treatment initiation) and the ADCS-ADL score after treatment with masitinib or with placebo. An increase in ADCS-ADL score with respect to baseline (i.e., a positive δLSM) indicates an improvement in the patient and therefore disease stability, whereas a decrease in ADCS-ADL score with respect to baseline (i.e., negative δLSM) indicates a worsening in the patient and therefore disease progression. Treatment-effect is reported as the difference between treatment-arms (ΔLSM) (calculated as δLSM[masitinib] minus δLSM[placebo]), with a positive value indicating a beneficial effect of treatment with masitinib as compared to treatment with placebo. In a scenario where both treatment-arms show worsening in activities of daily living (i.e., a negative δLSM), then a positive ΔLSM indicates a beneficial treatment effect for masitinib, i.e., the rate of decline in masitinib treated patients is slower than that of patients from the placebo-arm.
The comparison was carried out using the following information: • δLSM: least-squares means difference of absolute change in endpoint score at week 24 from baseline, either according to ADAS-Cog assessment or to ADCS-ADL assessment. • ΔLSM: Difference between treatment-arms (treatment-effect) calculated as δLSM[masitinib] minus δLSM[placebo]. • Δsub/Δoverall: Ratio of subpopulation's placebo-controlled treatment-effect (ΔLSM at W24 for masitinib 4.5 mg/kg/d parallel arm) versus overall study population's placebo-controlled treatment-effect (ΔLSM at W24 for masitinib 4.5 mg/kg/d parallel arm). […]

## Cc1ccc(NC(=O)c2ccc(CN3CCN(C)CC3)cc2)cc1Nc1nc(-c2cccnc2)cs1 [masitinib, 4-(4-methylpiperazin-1-ylmethyl)-N-[4-methyl-3-(4-pyridin-3ylthiazol-2-ylamino)phenyl]benzamide]
MMSE [12-20]
  δLSM (ADCS-ADL): −0.4369
MMSE [25-21]
  ΔLSM (ADCS-ADL): +2.7435 points
  δLSM (ADCS-ADL): 3.5738
MMSE [25-21], listed as M4.5, 4.5 mg/kg/day
  ΔLSM (ADCS-ADL): 2.7435 points
MMSE ≥13
  ΔLSM (ADCS-ADL): 2.0496 points
  δLSM (ADCS-ADL): 1.1204
MMSE ≥14
  ΔLSM (ADCS-ADL): +2.4046 points
  δLSM (ADCS-ADL): 1.3505
MMSE ≥14, listed as M4.5, 4.5 mg/kg/day
  ΔLSM (ADCS-ADL): 2.4046 points
MMSE ≥15
  ΔLSM (ADCS-ADL): 2.2738 points
  δLSM (ADCS-ADL): 1.3520
MMSE ≥16
  ΔLSM (ADCS-ADL): 2.5566 points
  δLSM (ADCS-ADL): 1.6088
MMSE ≥17
  ΔLSM (ADCS-ADL): 2.2870 points
  δLSM (ADCS-ADL): 1.0330
Overall Population
  ΔLSM (ADCS-ADL): 1.8190 points
  δLSM (ADCS-ADL): 1.0107
Ratio of ΔLSM (ADCS-ADL) at W24, Baseline ADCS-ADL >39 vs overall study population
  Δsub/Δoverall: 1.14
Ratio of ΔLSM (ADCS-ADL) at W24, Baseline ADCS-ADL >47 vs overall study population
  Δsub/Δoverall: 1.19
Ratio of ΔLSM (ADCS-ADL) at W24, Baseline ADCS-ADL >55 vs overall study population
  Δsub/Δoverall: 1.75
Ratio of ΔLSM (ADCS-ADL) at W24, Baseline ADCS-ADL ≥32 vs overall study population
  Δsub/Δoverall: 1.09
Ratio of ΔLSM (ADCS-ADL) at W24, Baseline ADCS-ADL ≥35 vs overall study population
  Δsub/Δoverall: 1.11
Ratio of ΔLSM (ADCS-ADL) at W24, Baseline ADCS-ADL ≥38 vs overall study population
  Δsub/Δoverall: 1.28
Ratio of ΔLSM (ADCS-ADL) at W24, Baseline ADCS-ADL ≥41 vs overall study population
  Δsub/Δoverall: 1.11
Ratio of ΔLSM (ADCS-ADL) at W24, Baseline ADCS-ADL ≥50 vs overall study population
  Δsub/Δoverall: 1.78
Ratio of ΔLSM (ADCS-ADL) at W24, MMSE [20-12] vs overall study population
  Δsub/Δoverall: 0.76
Ratio of ΔLSM (ADCS-ADL) at W24, MMSE [25-21] vs overall study population
  Δsub/Δoverall: 1.51
Ratio of ΔLSM (ADCS-ADL) at W24, MMSE ≥13 vs overall study population
  Δsub/Δoverall: 1.13
Ratio of ΔLSM (ADCS-ADL) at W24, MMSE ≥14 vs overall study population
  Δsub/Δoverall: 1.32
Ratio of ΔLSM (ADCS-ADL) at W24, MMSE ≥15 vs overall study population
  Δsub/Δoverall: 1.25
Ratio of ΔLSM (ADCS-ADL) at W24, MMSE ≥16 vs overall study population
  Δsub/Δoverall: 1.41
Ratio of ΔLSM (ADCS-ADL) at W24, MMSE ≥17 vs overall study population
  Δsub/Δoverall: 1.26
ΔLSM (ADCS-ADL) at W24, Baseline ADCS-ADL >39 vs overall study population
  Δsub/Δoverall (percentage improvement): (14%)
ΔLSM (ADCS-ADL) at W24, Baseline ADCS-ADL >47 vs overall study population
  Δsub/Δoverall (percentage improvement): (19%)
ΔLSM (ADCS-ADL) at W24, Baseline ADCS-ADL >55 vs overall study population
  Δsub/Δoverall (percentage improvement): 75%
ΔLSM (ADCS-ADL) at W24, Baseline ADCS-ADL >55 vs overall study population, listed as M4.5
  Δsub/Δoverall (percentage improvement): (75%)
ΔLSM (ADCS-ADL) at W24, Baseline ADCS-ADL ≥32 vs overall study population
  Δsub/Δoverall (percentage improvement): (9%)
ΔLSM (ADCS-ADL) at W24, Baseline ADCS-ADL ≥35 vs overall study population
  Δsub/Δoverall (percentage improvement): (11%)
ΔLSM (ADCS-ADL) at W24, Baseline ADCS-ADL ≥38 vs overall study population
  Δsub/Δoverall (percentage improvement): (28%)
ΔLSM (ADCS-ADL) at W24, Baseline ADCS-ADL ≥41 vs overall study population
  Δsub/Δoverall (percentage improvement): (11%)
ΔLSM (ADCS-ADL) at W24, Baseline ADCS-ADL ≥50 vs overall study population
  Δsub/Δoverall (percentage improvement): 78%
ΔLSM (ADCS-ADL) at W24, Baseline ADCS-ADL ≥50 vs overall study population, listed as M4.5
  Δsub/Δoverall (percentage improvement): (78%)
ΔLSM (ADCS-ADL) at W24, MMSE [20-12] vs overall study population
  Δsub/Δoverall (percentage improvement): (−24%)
ΔLSM (ADCS-ADL) at W24, MMSE [25-21] vs overall study population
  Δsub/Δoverall (percentage improvement): 51%
ΔLSM (ADCS-ADL) at W24, MMSE [25-21] vs overall study population, listed as M4.5
  Δsub/Δoverall (percentage improvement): (51%)
ΔLSM (ADCS-ADL) at W24, MMSE ≥13 vs overall study population
  Δsub/Δoverall (percentage improvement): (13%)
ΔLSM (ADCS-ADL) at W24, MMSE ≥14 vs overall study population
  Δsub/Δoverall (percentage improvement): 32%
ΔLSM (ADCS-ADL) at W24, MMSE ≥14 vs overall study population, listed as M4.5
  Δsub/Δoverall (percentage improvement): (32%)
ΔLSM (ADCS-ADL) at W24, MMSE ≥15 vs overall study population
  Δsub/Δoverall (percentage improvement): (25%)
ΔLSM (ADCS-ADL) at W24, MMSE ≥16 vs overall study population
  Δsub/Δoverall (percentage improvement): (41%)
ΔLSM (ADCS-ADL) at W24, MMSE ≥17 vs overall study population
  Δsub/Δoverall (percentage improvement): (26%)
Baseline ADAS-Cog ≤25 relative to >25
  improved benefit relative to complementary subpopulation: 84%
Baseline ADCS-ADL >39 relative to ≤39
  improved benefit relative to complementary subpopulation: 191%
Baseline ADCS-ADL >55 relative to ≤55
  improved benefit relative to complementary subpopulation: about 600%
Baseline MMSE 25 to 21 relative to MMSE 20 to 12, printed as 'between 99% to 66%'
  improved benefit relative to complementary subpopulation: 99%
